According to patent US8895756B2, “Bendamustine pharmaceutical compositions” (priority 2005, dated 2014):

Test: HPLC stability of bendamustine (15 mg/mL, mannitol 25.5 mg/mL) in alcohol/water solutions at 5° C.
Format: physicochemical
Conditions: for HP1 (%) / Purity (% Area) / Dimer (%): 5° C.
Experimental: A sample of each formulation was analyzed by HPLC after 0, 3, 6 and 24 hours when stored at 5° C.

[1] = 20% Butanol (2 layers, vortexed), 0 hours
[2] = 20% Butanol (2 layers, vortexed), 3 hours
[3] = 20% Butanol (2 layers, vortexed), 6 hours
[4] = 20% Butanol (2 layers, vortexed), 24 hours
[5] = 30% Butanol (2 layers, vortexed), 0 hours
[6] = 30% Butanol (2 layers, vortexed), 3 hours
[7] = 30% Butanol (2 layers, vortexed), 6 hours
[8] = 30% Butanol (2 layers, vortexed), 24 hours

SMILES: Cl.Cn1c(CCCC(=O)O)nc2cc(N(CCCl)CCCl)ccc21 [bendamustine, 4-{5-[Bis(2-chloroethyl)amino]-1-methyl-2-benzimidazolyl}butyric acid]
- HP1 (%) (10% n-Propanol, 6 hours): 0.70%
- Purity (% Area) (10% n-Propanol, 6 hours): 98.92 % Area
- Dimer (%) (10% n-Propanol, 24 hours): 0.28%
- HP1 (%) (10% n-Propanol, 24 hours): 1.83%
- Purity (% Area) (10% n-Propanol, 24 hours): 97.67 % Area
- Dimer (%) [1]: 0.10%
- HP1 (%) [1]: 0.23%
- Purity (% Area) [1]: 99.54 % Area
- Dimer (%) [2]: 0.11%
- HP1 (%) [2]: 0.31%
- Purity (% Area) [2]: 99.45 % Area
- Dimer (%) [3]: 0.11%
- HP1 (%) [3]: 0.40%
- Purity (% Area) [3]: 99.30 % Area
- Dimer (%) [4]: 0.14%
- HP1 (%) [4]: 0.91%
- Purity (% Area) [4]: 98.81 % Area
- Dimer (%) (20% Ethanol, 0 hours): 0.10%
- HP1 (%) (20% Ethanol, 0 hours): 0.22%
- Purity (% Area) (20% Ethanol, 0 hours): 99.54 % Area
- Dimer (%) (20% Ethanol, 3 hours): 0.11%
- HP1 (%) (20% Ethanol, 3 hours): 0.30%
- Purity (% Area) (20% Ethanol, 3 hours): 99.45 % Area
- Dimer (%) (20% Ethanol, 6 hours): 0.11%
- HP1 (%) (20% Ethanol, 6 hours): 0.39%
- Purity (% Area) (20% Ethanol, 6 hours): 99.36 % Area
- Dimer (%) (20% Ethanol, 24 hours): 0.15%
- HP1 (%) (20% Ethanol, 24 hours): 0.96%
- Purity (% Area) (20% Ethanol, 24 hours): 98.61 % Area
- Dimer (%) (20% Iso-propanol, 0 hours): 0.11%
- HP1 (%) (20% Iso-propanol, 0 hours): 0.21%
- Purity (% Area) (20% Iso-propanol, 0 hours): 99.49 % Area
- Dimer (%) (20% Iso-propanol, 3 hours): 0.12%
- HP1 (%) (20% Iso-propanol, 3 hours): 0.31%
- Purity (% Area) (20% Iso-propanol, 3 hours): 99.39 % Area
- Dimer (%) (20% Iso-propanol, 6 hours): 0.13%
- HP1 (%) (20% Iso-propanol, 6 hours): 0.42%
- Purity (% Area) (20% Iso-propanol, 6 hours): 99.22 % Area
- Dimer (%) (20% Iso-propanol, 24 hours): 0.17%
- HP1 (%) (20% Iso-propanol, 24 hours): 1.04%
- Purity (% Area) (20% Iso-propanol, 24 hours): 98.61 % Area
- Dimer (%) (20% Methanol, 0 hours): 0.11%
- HP1 (%) (20% Methanol, 0 hours): 0.22%
- Purity (% Area) (20% Methanol, 0 hours): 99.56 % Area
- Dimer (%) (20% Methanol, 3 hours): 0.11%
- HP1 (%) (20% Methanol, 3 hours): 0.38%
- Purity (% Area) (20% Methanol, 3 hours): 99.31 % Area
- Dimer (%) (20% Methanol, 6 hours): 0.12%
- HP1 (%) (20% Methanol, 6 hours): 0.50%
- Purity (% Area) (20% Methanol, 6 hours): 98.99 % Area
- Dimer (%) (20% Methanol, 24 hours): 0.16%
- HP1 (%) (20% Methanol, 24 hours): 1.15%
- Purity (% Area) (20% Methanol, 24 hours): 98.31 % Area
- Dimer (%) (20% Tert-butanol, 0 hours): 0.11%
- HP1 (%) (20% Tert-butanol, 0 hours): 0.17%
- Purity (% Area) (20% Tert-butanol, 0 hours): 99.59 % Area
- Dimer (%) (20% Tert-butanol, 3 hours): 0.11%
- HP1 (%) (20% Tert-butanol, 3 hours): 0.29%
- Purity (% Area) (20% Tert-butanol, 3 hours): 99.48 % Area
- Dimer (%) (20% Tert-butanol, 6 hours): 0.12%
- HP1 (%) (20% Tert-butanol, 6 hours): 0.40%
- Purity (% Area) (20% Tert-butanol, 6 hours): 99.35 % Area
- Dimer (%) (20% Tert-butanol, 24 hours): 0.20%
- HP1 (%) (20% Tert-butanol, 24 hours): 1.27%
- Purity (% Area) (20% Tert-butanol, 24 hours): 98.35 % Area
- Dimer (%) (20% n-Propanol, 0 hours): 0.13%
- HP1 (%) (20% n-Propanol, 0 hours): 0.33%
- Purity (% Area) (20% n-Propanol, 0 hours): 99.45 % Area
- Dimer (%) (20% n-Propanol, 3 hours): 0.13%
- HP1 (%) (20% n-Propanol, 3 hours): 0.26%
- Purity (% Area) (20% n-Propanol, 3 hours): 99.42 % Area
- Dimer (%) (20% n-Propanol, 6 hours): 0.14%
- HP1 (%) (20% n-Propanol, 6 hours): 0.39%
- Purity (% Area) (20% n-Propanol, 6 hours): 99.29 % Area
- Dimer (%) (20% n-Propanol, 24 hours): 0.24%
- HP1 (%) (20% n-Propanol, 24 hours): 0.97%
- Purity (% Area) (20% n-Propanol, 24 hours): 98.60 % Area
- HP1 (30% (v/v) TBA, stored at 5° C. for up to 24 hours): about 0.4%
- Dimer (%) [5]: 0.10%
- HP1 (%) [5]: 0.24%
- Purity (% Area) [5]: 99.55 % Area
- Dimer (%) [6]: 0.10%
- HP1 (%) [6]: 0.29%
- Purity (% Area) [6]: 99.40 % Area
- Dimer (%) [7]: 0.11%
- HP1 (%) [7]: 0.37%
- Dimer (%) [8]: 0.12%
- HP1 (%) [8]: 0.74%
- Dimer (%) (30% Ethanol, 0 hours): 0.10%
- HP1 (%) (30% Ethanol, 0 hours): 0.15%
- Purity (% Area) (30% Ethanol, 0 hours): 99.62 % Area
- Dimer (%) (30% Ethanol, 3 hours): 0.11%
- HP1 (%) (30% Ethanol, 3 hours): 0.21%
- Purity (% Area) (30% Ethanol, 3 hours): 99.56 % Area
- Dimer (%) (30% Ethanol, 6 hours): 0.12%
- HP1 (%) (30% Ethanol, 6 hours): 0.24%
- Purity (% Area) (30% Ethanol, 6 hours): 99.52 % Area
- Dimer (%) (30% Ethanol, 24 hours): 0.12%
- HP1 (%) (30% Ethanol, 24 hours): 0.45%
- Purity (% Area) (30% Ethanol, 24 hours): 99.21 % Area
- Dimer (%) (30% Iso-propanol, 0 hours): 0.10%
- HP1 (%) (30% Iso-propanol, 0 hours): 0.15%
- Purity (% Area) (30% Iso-propanol, 0 hours): 99.56 % Area
- Dimer (%) (30% Iso-propanol, 3 hours): 0.12%
- HP1 (%) (30% Iso-propanol, 3 hours): 0.20%
- Purity (% Area) (30% Iso-propanol, 3 hours): 99.47 % Area
- Dimer (%) (30% Iso-propanol, 6 hours): 0.11%
- HP1 (%) (30% Iso-propanol, 6 hours): 0.24%
- Purity (% Area) (30% Iso-propanol, 6 hours): 99.40 % Area
- Dimer (%) (30% Iso-propanol, 24 hours): 0.14%
- HP1 (%) (30% Iso-propanol, 24 hours): 0.52%
- Purity (% Area) (30% Iso-propanol, 24 hours): 99.15 % Area
- Dimer (%) (30% Methanol, 0 hours): 0.10%
- HP1 (%) (30% Methanol, 0 hours): 0.18%
- Purity (% Area) (30% Methanol, 0 hours): 99.59 % Area
- Dimer (%) (30% Methanol, 3 hours): 0.11%
- HP1 (%) (30% Methanol, 3 hours): 0.27%
- Purity (% Area) (30% Methanol, 3 hours): 99.43 % Area
- Dimer (%) (30% Methanol, 6 hours): 0.11%
- HP1 (%) (30% Methanol, 6 hours): 0.34%
- Purity (% Area) (30% Methanol, 6 hours): 99.25 % Area
- Dimer (%) (30% Methanol, 24 hours): 0.13%
- HP1 (%) (30% Methanol, 24 hours): 0.76%
- Purity (% Area) (30% Methanol, 24 hours): 98.65 % Area
- Dimer (%) (30% Tert-butanol, 0 hours): 0.10%
- HP1 (%) (30% Tert-butanol, 0 hours): 0.13%
- Purity (% Area) (30% Tert-butanol, 0 hours): 99.63 % Area
- Dimer (%) (30% Tert-butanol, 3 hours): 0.10%
- HP1 (%) (30% Tert-butanol, 3 hours): 0.16%
- Purity (% Area) (30% Tert-butanol, 3 hours): 99.60 % Area
- Dimer (%) (30% Tert-butanol, 6 hours): 0.11%
- HP1 (%) (30% Tert-butanol, 6 hours): 0.18%
- Purity (% Area) (30% Tert-butanol, 6 hours): 99.58 % Area
- Dimer (%) (30% Tert-butanol, 24 hours): 0.12%
- HP1 (%) (30% Tert-butanol, 24 hours): 0.34%
- Purity (% Area) (30% Tert-butanol, 24 hours): 99.42 % Area
- Dimer (%) (30% n-Propanol, 0 hours): 0.13%
- HP1 (%) (30% n-Propanol, 0 hours): 0.15%
- Purity (% Area) (30% n-Propanol, 0 hours): 99.53 % Area
- Dimer (%) (30% n-Propanol, 3 hours): 0.15%
- HP1 (%) (30% n-Propanol, 3 hours): 0.15%
- Purity (% Area) (30% n-Propanol, 3 hours): 99.51 % Area
- Dimer (%) (30% n-Propanol, 6 hours): 0.11%
- HP1 (%) (30% n-Propanol, 6 hours): 0.20%
- Purity (% Area) (30% n-Propanol, 6 hours): 99.44 % Area
- Dimer (%) (30% n-Propanol, 24 hours): 0.17%
- HP1 (%) (30% n-Propanol, 24 hours): 0.36%
- Purity (% Area) (30% n-Propanol, 24 hours): 99.27 % Area
